According to patent publication US4400384A, “5-o-Cyanobenzyl-4,5,6,7-tetrahydrothieno [3,2-c] pyridine methanesulfonate and other novel salts thereof” (Sanofi, S.A., priority 1980, dated 1983):
Entries after “also recorded” stand apart in the source; their conditions may differ. Where two headings read alike, the source gives them in different places.

Experiments:
[1] = tested on: blood-platelet aggregation (ADP); test: Inhibitor action on blood-platelet aggregation, ADP method (ex vivo after gastric tube dosing); assay type: in vivo, female rats of the Wistar type; conditions: 100 mg/Kg base equivalent at 48, 24 and 2 h before blood drawing
Protocol: (§1) The inhibitor action on blood-platelet aggregation of the salts of the present invention was determined by two different standard methods known to the art.
(§2) The first method, involving the use of ADP (adenosine diphosphate), is that of Ferrand J. C., Gaich C., Dumas, A.--EVALUATION DE L' EFFET ANTI-AGREGANT DE LA TICLOPIDINE PAR UNE TECHNIQUE SUR SANG TOTAL. COMM. SOCIETE DE BIOLOGIE DE TOULOUSE (TOULOUSE Feb. 9, 1978), RESUME IN: REV MED TOULOUSE, 1978, 14, (SUPPL. 5) 680, referred to hereinafter as the ADP method.
(§3) Groups of 10 female rats of the Wistar type were each dosed with one of the base or one of the salts of the invention and with the corresponding maleate salt of Amselem U.S. Pat. No. 4,097,482, at periods of 48 hours, 24 hours and 2 hours prior to drawing blood for testing by the ADP and collagen techniques referred to above. The active medicaments were administered by means of a gastric tube in the form of a 5% aqueous solution of gum arabic. A dosage level of 100 mg/Kg was used for the base, and for the salts an amount was used sufficient to provide the equivalent amount of the base portion of the salt.

[2] = tested on: blood-platelet aggregation (collagen); test: Inhibitor action on blood-platelet aggregation, collagen method (ex vivo after gastric tube dosing); assay type: in vivo, female rats of the Wistar type; conditions: 100 mg/Kg base equivalent at 48, 24 and 2 h before blood drawing, controls 2.53
Protocol: as §1
(§4) The second method is that described in Ferrand J. C., Lale A.--NUMERATION ET AGREGATION PLAQUETTAIRE A L AIDE DE L AUTOCOUNTER. APPLICATION A L ETUDE DE LA TICLOPIDINE. COMM. SYMPOSIUM TECHNICON INDUSTRIE (PARIS, June 15, 1978); Ferrand J. C., Lale A.--EVALUATION EX-VIVO DE L AGREGATION PLAQUETTAIRE PAR UNE TECHNIQUE AUTOMATIQUE SUR SANG TOTAL COMM. SOCIETE FRANCAISE DE BIOLOGIE CLINIQUE (PARIS Sept. 28, 1979); and J. C. Ferrand, A. Lale, D. Aubert and G. Barthelemy--APPRECIATION QUANTITATIVE DE L' ACTIVITE ANTI-AGREGANTE DE LA TICLOPIDINE PAR VOIE AUTOMATIQUE. COMM. REUNION DE L' ASOCIATION FRANCAISE DE PHARMACOLOGISTES DIJON (May 2-3, 1980), and is referred to hereafter as the collagen method.
as §3

Acute toxicity in mice = conditions: mouse, in vivo
Protocol: The preferred methanesulfonate salt of the present invention was tested for acute and sub-acute toxicity and the results obtained on rats and mice by oral, intravenous and intraperitoneal administration are set forth in the tables below.

dogs [3] = test: Toxicity by oral administration in dogs; assay type: in vivo; conditions: 33 to 100 mg/Kg/day, 24 days
Protocol: Further toxicity investigations were carried out on the MS salt by oral administration in dogs. Two groups of 10 adult dogs were selected; one group being used as the control and the second group having the MS salt administered orally in increasing dosages as follows: […]

dogs [4] = test: Toxicity by intravenous administration in dogs; assay type: in vivo
Protocol: Further tests were conducted by intravenous administration of the MS salt to the dogs. In these tests 15 dogs were divided into three groups of 2 male and 3 female dogs each. One group was used as a control; only the 5 ml of […] aqueous saline vehicle being injected intravenously. The other two groups of dogs received intravenous injections of the MS salt in the same vehicle; one group a 2.5% solution of the MS salt at a dosage of 7.5 mg/Kg and the other group receiving the same solution at a dosage of 15 mg/Kg.

[5] = tested on: blood-platelet aggregation; test: Inhibition of blood-platelet aggregation (general statement); assay type: in vivo; conditions: result in words
Protocol: as §1, §2
as §4, with “method. […]” for “method.”

[6] = Anti-inflammatory activity; assay type: in vivo; conditions: result in words; listed as MS salt, methanesulfonate
Anti-thrombotic activity = conditions: in vivo
red globules = test: Anti-sludge activity in vivo in the rat
central nervous system = test: Central nervous system activity per se, mice; assay type: in vivo
[7] = tested on: effects of oxotremorine or reserpine; test: Modification of the effects of oxotremorine or reserpine; assay type: in vivo; conditions: alone or together with ethyl alcohol
[8] = tested on: musculotropic isolated intestine; test: Anti-spasmodic activity on isolated intestine
Diuretic activity = conditions: in vivo
rabbit = test: Cardiovascular action in anesthetized rabbit; assay type: in vivo; conditions: perfusions at high dosages
human patients = test: Clinical study, first series: tolerance; assay type: in vivo; conditions: oral capsules, 350 to 1400 mg per day, 3 weeks, 12 patients
Protocol: The MS salt has been administered to human patients orally in the form of capsules each containing 175 mg of the active salt. Twelve patients were treated in four groups; one group receiving 2 capsules per day (350 mg); a second group receiving 4 capsules per day (700 mg); a third group receiving 6 capsules per day (1050 mg); and the fourth group receiving 8 capsules per day (1400 mg). This regimen was continued for 3 weeks.

patients = test: Clinical study, second series: tolerance; assay type: in vivo, human; conditions: oral capsules, 700 mg per day, 7 days plus morning of 8th day, 11 patients
Protocol: (§5) In a second series of tests, the MS salt was again administered orally in the form of capsules containing 175 mg of the active salt. Eleven patients were treated, each patient receiving 4 capsules per day containing a total of 700 mg of MS salt divided in two portions of 350 mg morning and evening, after meals, for 7 days, and on the 8th day in the morning only. Therefore, the total amount of active ingredient (MS salt) was 5250 mg to each subject.

[9] = tested on: blood-platelet aggregation; test: Clinical study, second series: inhibition of blood-platelet aggregation; assay type: in vivo, human; conditions: oral capsules, 700 mg per day, 7 days plus morning of 8th day, 11 patients
Protocol: as §5

## CS(=O)(=O)O.N#Cc1ccccc1CN1CCc2sccc2C1 [Methanesulfonate, 5-o-Cyanobenzyl-4,5,6,7-tetrahydrothieno [3,2-c] pyridine methanesulfonate]
[1]; 1 mn 30 s, controls 0.29
  BLOOD PLATELET AGGREGATION, ADP, 1 mn 30 s: 0.73
[1]; 3 mn, controls 0.40
  BLOOD PLATELET AGGREGATION, ADP, 3 mn: 0.88
[2]
  BLOOD PLATELET AGGREGATION, COLLAGEN: 0.59
Acute toxicity in mice; intravenous, read-out: LD50, intravenous, mice
  LD50 at 8 h: 134 mg/kg
Acute toxicity in mice; ip, intraperitoneal, read-out: LD50, intraperitoneal, mice
  LD50 at 8 h: 898 mg/kg
Acute toxicity in mice; oral, read-out: LD50, oral, mice
  LD50 at 8 h: 883 mg/kg
Dogs [3]
  deaths attributable to the salt: No deaths occurred which were attributable to the MS salt
  hematological, blood biochemical or urinary functions: No significant variations
  vomiting: some of the dogs experienced some vomiting
Dogs [4]; conclusion from oral and intravenous tests
  toxicity and tolerance in dogs (overall): of low toxicity and well-tolerated by dogs
Dogs [4]; intravenous, 7.5 and 15 mg/Kg, 2.5% solution in 9% aqueous saline, 23 consecutive days
  death: without the death of any dog
[5]
  inhibitor action against blood-platelet aggregation: excellent inhibitory action against blood-platelet aggregation
[6]
  anti-inflammatory activity: free of anti-inflammatory or vasodilator activity as is the MS salt; also recorded: without anti-inflammatory activity
Anti-thrombotic activity
  anti-thrombotic activity: exhibits anti-thrombotic activity
Red globules; administered intravenously
  anti-sludge activity in vivo, intravenous: also in vivo when administered orally or intravenously in the rat
Red globules; administered orally
  anti-sludge activity in vivo, oral: also in vivo when administered orally
Central nervous system
  influence on the central nervous system per se, mice: no influence on the central nervous system
[7]
  modification of the effects of oxotremorine: does not modify the effects of oxotremorine
  modification of the effects of reserpine: does not modify the effects of oxotremorine or reserpine
[8]
  anti-spasmodic activity: exhibit anti-spasmodic activity
Diuretic activity
  diuretic activity: free of diuretic activity
rabbit
  cardiovascular depressive action: cardiovascular depressive action
Human patients
  clinical tolerance: Clinical tolerance was excellent
  side effects or incidents: no side effects or incidents being noted
patients
  clinical tolerance: Clinical tolerance was excellent
[9]
  inhibitory activity on blood-platelet aggregation in patients: very effective inhibitory activity on blood-platelet aggregation
